The text below walks through data of patent US20250213563A1, “SUBSTITUTED PYRIMIDIN-4(3H)-ONES FOR USE IN TREATING CANCER” (NAVIRE PHARMA, INC., priority 2021, published 2025).

The IC50 is the concentration that gives 50% inhibition. As a reminder, the TGI is how far tumour growth fell short of that in controls. Low readings indicate a weaker effect on the tumour, high ones a stronger effect on the tumour.

The target of one data set is hERG potassium channel (Homo sapiens, UniProt Q12809). Briefly: hERG manual whole cell patch clamp in CHO cells. For orientation: The hERG channel carries a current that helps repolarise heart muscle cells.
Chain of hERG potassium channel (Q12809 whole entry): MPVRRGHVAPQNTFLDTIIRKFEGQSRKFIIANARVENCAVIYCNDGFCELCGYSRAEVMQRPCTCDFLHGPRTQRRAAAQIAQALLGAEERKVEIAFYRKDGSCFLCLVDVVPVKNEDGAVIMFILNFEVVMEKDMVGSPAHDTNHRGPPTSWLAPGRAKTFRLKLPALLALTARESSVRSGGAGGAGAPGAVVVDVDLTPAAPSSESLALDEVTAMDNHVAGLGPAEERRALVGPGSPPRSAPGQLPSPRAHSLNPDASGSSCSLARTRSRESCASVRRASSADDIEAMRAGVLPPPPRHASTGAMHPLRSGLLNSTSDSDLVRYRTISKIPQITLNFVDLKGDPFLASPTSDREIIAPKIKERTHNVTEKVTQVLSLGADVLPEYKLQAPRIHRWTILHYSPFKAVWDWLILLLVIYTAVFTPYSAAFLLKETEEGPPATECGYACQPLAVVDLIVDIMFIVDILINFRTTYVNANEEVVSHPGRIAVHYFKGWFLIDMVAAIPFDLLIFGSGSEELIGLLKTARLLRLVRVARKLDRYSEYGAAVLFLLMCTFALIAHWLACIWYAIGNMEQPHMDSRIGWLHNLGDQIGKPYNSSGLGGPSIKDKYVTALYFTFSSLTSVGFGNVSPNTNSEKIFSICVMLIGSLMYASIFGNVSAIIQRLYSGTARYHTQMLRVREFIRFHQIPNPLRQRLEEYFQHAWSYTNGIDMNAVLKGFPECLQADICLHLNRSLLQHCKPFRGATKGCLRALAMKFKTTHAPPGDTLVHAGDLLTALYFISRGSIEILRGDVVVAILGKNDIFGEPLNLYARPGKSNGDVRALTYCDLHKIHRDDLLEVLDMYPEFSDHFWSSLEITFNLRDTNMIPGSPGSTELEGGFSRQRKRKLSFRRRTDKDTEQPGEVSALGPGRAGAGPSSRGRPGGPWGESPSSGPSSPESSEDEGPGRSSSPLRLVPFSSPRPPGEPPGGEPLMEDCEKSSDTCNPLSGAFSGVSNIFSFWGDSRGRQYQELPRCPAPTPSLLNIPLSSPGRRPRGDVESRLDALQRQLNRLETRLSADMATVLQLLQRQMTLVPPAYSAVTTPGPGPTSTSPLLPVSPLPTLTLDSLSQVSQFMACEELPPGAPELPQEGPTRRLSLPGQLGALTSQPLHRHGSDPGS
The target in data set [1] is T1, full-length human SHP2 wild-type enzyme (Homo sapiens, UniProt Q06124).
T1 construct: full-length human SHP2 (amino acid 1-597); 6xHis (TEV site) (N, cleaved yes); made in house; host or cells: E. coli BL21 (DE3)
T1 sequence (Q06124 1-597 isoform Q06124-1): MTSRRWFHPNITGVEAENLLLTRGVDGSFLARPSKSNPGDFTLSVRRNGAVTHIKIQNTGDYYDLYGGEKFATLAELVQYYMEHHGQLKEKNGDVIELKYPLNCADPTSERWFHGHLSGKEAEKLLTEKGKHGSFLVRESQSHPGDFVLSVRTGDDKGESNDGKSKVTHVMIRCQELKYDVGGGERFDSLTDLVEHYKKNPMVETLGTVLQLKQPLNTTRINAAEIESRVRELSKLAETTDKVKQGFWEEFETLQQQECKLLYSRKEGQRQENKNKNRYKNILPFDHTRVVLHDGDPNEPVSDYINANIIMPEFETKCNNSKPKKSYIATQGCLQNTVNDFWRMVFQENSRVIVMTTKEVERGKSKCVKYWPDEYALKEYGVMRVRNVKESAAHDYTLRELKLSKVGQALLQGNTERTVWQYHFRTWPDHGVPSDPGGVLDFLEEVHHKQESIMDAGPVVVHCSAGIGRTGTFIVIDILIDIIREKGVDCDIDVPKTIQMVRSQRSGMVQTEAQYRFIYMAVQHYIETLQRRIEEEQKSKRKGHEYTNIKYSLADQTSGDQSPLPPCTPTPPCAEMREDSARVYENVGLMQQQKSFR
Briefly: SHP2 enzymatic assay (DiFMUP), full-length enzyme. Format: biochemical. The following applies: in presence of 1 μM bistyrosylphorphorylated peptide; mean±SD, 34 independent test occasions. Here is the method: Protein purification: The recombinant DNA for full-length human SHP2 (amino acid 1-597) or the phosphatase domain of human SHP2 (amino acid Ala237-Ile529) was cloned into a pET30 vector (Sigma #69909-3), which was modified to contain a TEV protease site after the N-terminal 6×His tag. The expression vector was transformed into E. coli BL21 (DE3) (NEB #C2527H). The protein was expressed and purified by the following procedure. Bacterial cells from a 50 mL overnight culture were inoculated in 6 L of terrific broth media. Once the E. coli culture reached an OD600 of 0.7, the temperature was lowered to 18° C. and recombinant protein expression was induced by the addition of 0.5 mM IPTG. After overnight incubation, the cells were harvested by centrifugation at […] for 45 min in a Sorvall Lynx 6000 (Thermo Fisher) centrifuge with F9-6×1000 LEX rotor. The cell pellets were stored at −80° C. until purification. […] The final product was 98% pure as determined by SDS-PAGE. The concentration of SHP2 protein was determined from the absorbance at 280 nm wavelength, using the calculated molar extinction coefficient for SHP2 protein of 72770 M^−1 cm^−1.
SHP2 enzymatic assay: Phosphatase activity of full-length human SHP2 wild-type enzyme or SHP2 phosphatase domain was measured using fluorogenic 6,8-difluoro-4-methylumbelliferyl phosphate (DiFMUP; Molecular Probes #D6567) as the substrate. […]

The next data set deals with NCI-H358 CDX model. Briefly: Monotherapy anti-tumor activity, CDX model. The class given is in vivo, immunocompromised mice. The following applies: 100 mg/kg daily orally, 21 to 33 days; KRAS^G12C. As to the method:
(§1) In vivo efficacy studies were conducted to evaluate the monotherapy anti-tumor activity of Compound (10b) across a panel of cell line-derived xenograft (CDX) models. […] Significant anti-tumor efficacy was also observed in two CDX models with acquired resistance to EGFR inhibitors.

In another data set the test system is KYSE-520 model. Put plainly: Monotherapy anti-tumor activity, CDX model. The class given is in vivo, immunocompromised mice. To be noted: 100 mg/kg daily orally, 21 to 33 days; EGFR^amp. Here is the method:
as §1

The next data set concerns MIA PaCa-2 CDX model. Put plainly: Monotherapy anti-tumor activity, CDX model. Format: in vivo, immunocompromised mice. The following applies: 100 mg/kg daily orally, 21 to 33 days; KRAS^G12C. As to the method:
as §1

For another data set, the system named is HCC827-ER CDX model. Put plainly: Monotherapy anti-tumor activity, CDX model. To be noted: 100 mg/kg daily orally, 21 to 33 days; MET^amp, resistant to EGFR inhibitor. The class given is in vivo, immunocompromised mice. Here is the method:
as §1

In another data set the test system is NCI-H1975-OR CDX model. Briefly: Monotherapy anti-tumor activity, CDX model. The following applies: 100 mg/kg daily orally, 21 to 33 days; EGFR^L858R, EGFR^T790M, EGFR^C797S. The class given is in vivo, immunocompromised mice. Here is the method: as §1
Data set [2] in a line: Monotherapy studies across panel of CDX models, tolerability. To be noted: 100 mg/kg daily orally, 21 to 33 days, all CDX models. Format: in vivo, immunocompromised mice. As to the method:
as §1

Method for hERG potassium channel: HERG channel currents were recorded from single cells using standard whole cell recording techniques. The cells were voltage clamped at a holding potential of −80 mV. The hERG current was activated by depolarizing at +20 mV for 5 sec, after which the current was taken back to −50 mV for 5 sec to remove the inactivation and observe the deactivating tail current. The K+ tail current through HERG channels observed during this step was allowed to stabilize under continuous bath perfusion. […] Steady state was considered reached when three consecutive super-imposable current records were collected.

For `Cc1c(N2CCC3(CC2)CO[C@@H](C)[C@H]3N)nc(C)n(-c2cccc(Cl)c2Cl)c1=O` (atropisomer, axis not shown; (Ra)) [Compound (10b), 6-((3S,4S)-4-amino-3-methyl-2-oxa-8-azaspiro[4.5]decan-8-yl)-3-(Ra)-(2,3-dichlorophenyl)-2,5-dimethylpyrimidin-4(3H)-one], the IC50 against hERG potassium channel was above 100000 nM; in data set [1], 13.2 ± 10.6 nM. Besides, on hERG potassium channel (100 μM), the “inhibition of hERG activity relative to vehicle control” value is listed as 25.7%. The “effect on hERG channel activity” value on hERG potassium channel (0.3 to 30 μM) is given as “no effect”. For the same compound, the mean tumor regression in the data set with NCI-H358 CDX model came to 50%; with NCI-H1975-OR CDX model, 87%. The results for the TGI with KYSE-520 model and in the data set with HCC827-ER CDX model were 77% and 84%, respectively. Further, the “tumor growth inhibition (TGI)” value in the data set on MIA PaCa-2 CDX model is recorded as 74%. In data set [2], the “impact of treatment on body weight” value is on record as “no impact”. Moreover, the tolerability entry in data set [2] is listed as “well tolerated”.
